pIC50: −log10 of the molar value. Where two headings read alike, the source gives them in different places.
Experiments:
[1] = tested on: p-IKKα levels in L363 (NIK translocated multiple myeloma) cells; experiment: Effect of compounds on p-IKKα levels in L363 cells (AlphaLISA SureFire Ultra); format: cell-based, human; details: Homo sapiens, 10 μM MG132, 6 h, average of values obtained, read-out: Assay 2 IC50
How it was run: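 L363 cells were BAFF-stimulated overnight (250 ng/ml) in DMEM/0.5% BSA, then exposed to an 11-point 1:3 compound series (0.3% DMSO) with BAFF and 10 μM MG132 for 6 h at 37 °C. p-IKKα (Ser176/180) was measured by AlphaLISA SureFire Ultra. IC50 was fitted from % inhibition normalized to stimulated and unstimulated controls.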

[2] = target: recombinant human NF-kappaB-inducing kinase (NIK/MAP3K14) (Homo sapiens, UniProt Q99558); experiment: Inhibition of auto-phosphorylation of recombinant human NIK/MAP3K14 activity (AlphaScreen); format: biochemical; details: GST-tagged NIK/MAP3K14 1 nM, 5 μM ATP, 2 h at 25° C.; average of values obtained
recombinant human NF-kappaB-inducing kinase (NIK/MAP3K14), sequence (Q99558 whole entry): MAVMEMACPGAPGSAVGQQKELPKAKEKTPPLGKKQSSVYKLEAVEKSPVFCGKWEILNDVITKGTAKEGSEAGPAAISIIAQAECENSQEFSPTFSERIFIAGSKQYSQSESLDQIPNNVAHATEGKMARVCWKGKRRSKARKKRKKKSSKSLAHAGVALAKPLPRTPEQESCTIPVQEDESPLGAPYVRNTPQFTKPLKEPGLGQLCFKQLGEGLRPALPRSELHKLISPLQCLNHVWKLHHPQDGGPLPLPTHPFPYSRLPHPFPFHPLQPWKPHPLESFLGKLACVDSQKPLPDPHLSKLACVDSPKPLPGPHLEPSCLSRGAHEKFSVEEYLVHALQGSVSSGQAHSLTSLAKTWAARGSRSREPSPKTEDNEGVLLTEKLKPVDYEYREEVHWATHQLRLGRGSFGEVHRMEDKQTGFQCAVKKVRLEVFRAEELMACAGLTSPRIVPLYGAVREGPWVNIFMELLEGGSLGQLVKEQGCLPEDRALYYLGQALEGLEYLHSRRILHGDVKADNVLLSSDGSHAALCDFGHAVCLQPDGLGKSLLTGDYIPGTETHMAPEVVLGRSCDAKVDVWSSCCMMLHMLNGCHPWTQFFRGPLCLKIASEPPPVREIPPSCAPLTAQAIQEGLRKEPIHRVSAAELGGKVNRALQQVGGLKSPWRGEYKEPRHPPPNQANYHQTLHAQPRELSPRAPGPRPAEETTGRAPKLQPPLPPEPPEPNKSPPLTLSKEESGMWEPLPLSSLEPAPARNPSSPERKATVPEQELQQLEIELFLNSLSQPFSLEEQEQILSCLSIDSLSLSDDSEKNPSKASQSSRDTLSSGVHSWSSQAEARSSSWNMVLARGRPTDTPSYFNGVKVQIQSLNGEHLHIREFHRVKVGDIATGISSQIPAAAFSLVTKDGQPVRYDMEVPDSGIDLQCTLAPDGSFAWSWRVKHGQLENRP
How it was run: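 GST-tagged NIK (1 nM) auto-phosphorylated for 2 h at 25 °C with 5 μM ATP in 50 mM Tris pH 7.5, 5 mM MgCl2, 0.7% DMSO. Phospho-Ser176/180 was detected by AlphaScreen using an anti-phospho-IKK antibody. IC50 came from sigmoidal fits of % inhibition versus high (full activity) and low (no ATP) controls.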

[3] = L-363, 250 ng/ml BAFF stimulated
[4] = L-363, 6 h, 250 ng/ml BAFF stimulated

With COc1cnc2[nH]cc(-c3nc(-c4cccc([C@]5(O)CCN(C)C5=O)c4)cs3)c2c1 [Example 49, (R)-3-Hydroxy-3-(3-(2-(5-methoxy-1H-pyrrolo[2,3-b]pyridin-3-yl)thiazol-4-yl)phenyl)-1-methylpyrrolidin-2-one] the pIC50 [1, 3] was 6.30 to 7.00 and the pIC50 [2] was ≥ 7.00.
In the case of CN1CC[C@@](O)(c2cccc(-c3nc(-c4c[nH]c5ncccc45)sc3CO)c2)C1=O [Example 50, (R)-3-Hydroxy-3-(3-(5-(hydroxymethyl)-2-(1H-pyrrolo[2,3-b]pyridin-3-yl)thiazol-4-yl)phenyl)-1-methylpyrrolidin-2-one], the pIC50 [1, 3] was < 6.30 and the pIC50 [2] was ≥ 7.00.
In the case of CN1CC[C@@](O)(c2cccc(-c3csc(-c4c[nH]c5ncc(C(=O)O)cc45)n3)c2)C1=O [Example 51, (R)-3-(4-(3-(3-Hydroxy-1-methyl-2-oxopyrrolidin-3-yl)phenyl)thiazol-2-yl)-1H-pyrrolo[2,3-b]pyridine-5-carboxylic acid], the pIC50 [1, 3] was < 6.30 and the pIC50 [2] was ≥ 7.00.
In the case of CN1CC[C@@](O)(c2cccc(-c3csc(-c4c[nH]c5ncncc45)n3)c2)C1=O [Example 53, (R)-3-(3-(2-(7H-Pyrrolo[2,3-d]pyrimidin-5-yl)thiazol-4-yl)phenyl)-3-hydroxy-1-methylpyrrolidin-2-one], the pIC50 [1, 3] was < 6.30 and the pIC50 [2] was ≥ 7.00.
CN1CCC[C@@](O)(c2cccc(-c3csc(-c4c[nH]c5nccnc45)n3)c2)C1=O [Example 54, (R)-3-(3-(2-(5H-Pyrrolo[2,3-b]pyrazin-7-yl)thiazol-4-yl)phenyl)-3-hydroxy-1-methylpiperidin-2-one] was tested, and the pIC50 [1, 3] was 6.30 to 7.00 and the pIC50 [2] was ≥ 7.00.
For CN1CCC[C@](O)(c2cccc(-c3csc(-c4c[nH]c5nccnc45)n3)c2)C1=O [Example 55, (S)-3-(3-(2-(5H-Pyrrolo[2,3-b]pyrazin-7-yl)thiazol-4-yl)phenyl)-3-hydroxy-1-methylpiperidin-2-one], the pIC50 [1, 3] was < 6.30 and the pIC50 [2] was < 6.30.
With CN1CC[C@@](O)(c2cccc(-c3nc(-c4c(F)[nH]c5ncccc45)cs3)c2)C1=O [Example 56, (R)-3-(3-(4-(2-Fluoro-1H-pyrrolo[2,3-b]pyridin-3-yl)thiazol-2-yl)phenyl)-3-hydroxy-1-methylpyrrolidin-2-one] the pIC50 [1, 3] was < 6.30 and the pIC50 [2] was 6.30 to 7.00.
CN1CC[C@@](O)(c2cccc(-c3csc(-c4c(F)[nH]c5ncccc45)n3)c2)C1=O [Example 57, (R)-3-(3-(2-(2-Fluoro-1H-pyrrolo[2,3-b]pyridin-3-yl)thiazol-4-yl)phenyl)-3-hydroxy-1-methylpyrrolidin-2-one] was tested, and the pIC50 [1, 3] was < 6.30 and the pIC50 [2] was 6.30 to 7.00.
With O[C@]1(c2cccc(-c3nc(-c4c[nH]c5ncccc45)cs3)c2)CCc2scnc21 [Example 58, (S)-4-(3-(4-(1H-Pyrrolo[2,3-b]pyridin-3-yl)thiazol-2-yl)phenyl)-5,6-dihydro-4H-cyclopenta[d]thiazol-4-ol] the pIC50 [1, 4] was < 6.30 and the pIC50 [2] was 6.30 to 7.00.
In the case of O[C@@]1(c2cccc(-c3nc(-c4c[nH]c5ncccc45)cs3)c2)CCc2scnc21 [Example 59, (R)-4-(3-(4-(1H-Pyrrolo[2,3-b]pyridin-3-yl)thiazol-2-yl)phenyl)-5,6-dihydro-4H-cyclopenta[d]thiazol-4-ol], the pIC50 [1, 4] was ≥ 7.00 and the pIC50 [2] was ≥ 7.00.
For [2H]c1[nH]c2nccnc2c1-c1nc(-c2cccc([C@]3(O)CCn4ccnc43)c2)cs1 [Example 62, (R)-7-(3-(2-(5H-Pyrrolo[2,3-b]pyrazin-7-yl-6-d)thiazol-4-yl)phenyl)-6,7-dihydro-5H-pyrrolo[1,2-a]imidazol-7-ol], the pIC50 [1, 4] was ≥ 7.00 and the pIC50 [2] was ≥ 7.00.
In the case of [2H]c1cnc2[nH]cc(-c3nc(-c4cccc([C@]5(O)CCn6ccnc65)c4)cs3)c2n1 [Example 63, (R)-7-(3-(2-(5H-Pyrrolo[2,3-b]pyrazin-7-yl-2-d)thiazol-4-yl)phenyl)-6,7-dihydro-5H-pyrrolo[1,2-a] imidazol-7-ol], the pIC50 [1, 4] was ≥ 7.00 and the pIC50 [2] was ≥ 7.00.
For Cc1sc(-c2c[nH]c3nccnc23)nc1-c1cccc([C@]2(O)CCN(C)C2=O)c1 [Example 66, (R)-3-Hydroxy-1-methyl-3-(3-(5-methyl-2-(5H-pyrrolo[2,3-b]pyrazin-7-yl)thiazol-4-yl)phenyl)pyrrolidin-2-one], the pIC50 [1, 3] was < 6.30 and the pIC50 [2] was ≥ 7.00.
In the case of Cc1ccc([C@]2(O)CCN(C)C2=O)cc1-c1csc(-c2c[nH]c3nccnc23)n1 [Example 67, (R)-3-(3-(2-(5H-Pyrrolo[2,3-b]pyrazin-7-yl)thiazol-4-yl)-4-methylphenyl)-3-hydroxy-1-methylpyrrolidin-2-one], the pIC50 [1, 3] was < 6.30 and the pIC50 [2] was ≥ 7.00.
In the case of Cc1cc(-c2csc(-c3c[nH]c4nccnc34)n2)cc([C@]2(O)CCN(C)C2=O)c1 [Example 68, (R)-3-(3-(2-(5H-Pyrrolo[2,3-b]pyrazin-7-yl)thiazol-4-yl)-5-methylphenyl)-3-hydroxy-1-methylpyrrolidin-2-one], the pIC50 [1, 3] was < 6.30 and the pIC50 [2] was ≥ 7.00.
For Cc1ccc(-c2csc(-c3c[nH]c4nccnc34)n2)cc1[C@]1(O)CCN(C)C1=O [Example 69, (R)-3-(5-(2-(5H-Pyrrolo[2,3-b]pyrazin-7-yl)thiazol-4-yl)-2-methylphenyl)-3-hydroxy-1-methylpyrrolidin-2-one], the pIC50 [1, 3] was < 6.30 and the pIC50 [2] was 6.30 to 7.00.
With Cc1ccc(-c2csc(-c3c[nH]c4nccnc34)n2)cc1[C@@]1(O)CCN(C)C1=O [Example 70, (S)-3-(5-(2-(5H-Pyrrolo[2,3-b]pyrazin-7-yl)thiazol-4-yl)-2-methylphenyl)-3-hydroxy-1-methylpyrrolidin-2-one] the pIC50 [1, 3] was < 6.30 and the pIC50 [2] was < 6.30.
With Cc1[nH]c2ncccc2c1-c1nc(-c2cccc([C@]3(O)CCN(C)C3=O)c2)cs1 [Example 71, (R)-3-Hydroxy-1-methyl-3-(3-(2-(2-methyl-1H-pyrrolo[2,3-b]pyridin-3-yl)thiazol-4-yl)phenyl)pyrrolidin-2-one] the pIC50 [1, 3] was < 6.30 and the pIC50 [2] was 6.30 to 7.00.
With CN1CC[C@@](O)(c2cccc(-c3csc(-c4c[nH]c5ncc(C#N)cc45)n3)c2)C1=O [Example 72, (R)-3-(4-(3-(3-Hydroxy-1-methyl-2-oxopyrrolidin-3-yl)phenyl)thiazol-2-yl)-1H-pyrrolo[2,3-b]pyridine-5-carbonitrile] the pIC50 [1, 3] was < 6.30 and the pIC50 [2] was ≥ 7.00.
For Cc1ccc2c(-c3nc(-c4cccc([C@]5(O)CCN(C)C5=O)c4)cs3)c[nH]c2n1 [Example 73, (R)-3-Hydroxy-1-methyl-3-(3-(2-(6-methyl-1H-pyrrolo[2,3-b]pyridin-3-yl)thiazol-4-yl)phenyl)pyrrolidin-2-one], the pIC50 [1, 3] was < 6.30 and the pIC50 [2] was ≥ 7.00.
In the case of Cc1cnc2[nH]c(C)c(-c3nc(-c4cccc([C@]5(O)CCN(C)C5=O)c4)cs3)c2c1 [Example 74, (R)-3-(3-(2-(2,5-Dimethyl-1H-pyrrolo[2,3-b]pyridin-3-yl)thiazol-4-yl)phenyl)-3-hydroxy-1-methylpyrrolidin-2-one], the pIC50 [1, 3] was < 6.30 and the pIC50 [2] was < 6.30.
O[C@@]1(c2cccc(-c3csc(-c4n[nH]c5ncccc45)n3)c2)CCn2ccnc21 [Example 75, (R)-7-(3-(2-(1H-Pyrazolo[3,4-b]pyridin-3-yl)thiazol-4-yl)phenyl)-6,7-dihydro-5H-pyrrolo[1,2-a]imidazol-7-ol] was tested, and the pIC50 [1, 4] was < 6.30 and the pIC50 [2] was 6.30 to 7.00.
O[C@@]1(c2cccc(-c3csc(-c4n[nH]c5nccnc45)n3)c2)CCn2ccnc21 [Example 76, (R)-7-(3-(2-(1H-Pyrazolo[3,4-b]pyrazin-3-yl)thiazol-4-yl)phenyl)-6,7-dihydro-5H-pyrrolo[1,2-a]imidazol-7-ol] was tested, and the pIC50 [1, 4] was < 6.30 and the pIC50 [2] was 6.30 to 7.00.
